The values below come from patent publication US4560692A, “4-Piperidino-2-phenylquinolines” (Hoffmann-La Roche Inc., priority 1984, dated 1985).

Molecules are shown by their SMILES. pIC50: −log10 of the molar value. Read-outs that look alike come from different tables or passages of the source.

Series [1] concerns the target ^3 H-Diazepam binding, rat brain cortical fragments. The experiment in a line: ^3 H-Diazepam binding assay. The settings on record: inhibition of ^3 H-Diazepam binding by 50%. The method, then:
Rat brain cortical fragments are prepared and the binding procedures performed as described by Mohler and Okada (Life Sciences, 20, 2101, 1977) except that Tris buffer is substituted for Krebs buffer. Drugs are assayed in triplicate. Radioactivity is measured by liquid scintillation counting.

In series [2] the test system is convulsive seizures (Ptz. administered intraveneously). The experiment in a line: Intravenous antipentylenetetrazole (Ptz.) test, oral compound, protection against convulsions. The series is classed as in vivo, Male CF-1 mice. The settings on record: Mus musculus. The method, then: (§1) Utilizing the procedures given below, the compounds of formula I synthesized in the previous examples were assayed for antimetrezol activity and ^3 H-diazepam binding activity. The 24 hour acute toxicity (LD-50, expressed as mg/kg) of each of these compounds was also determined in the standard fashion.
Male CF-1 mice, 45-54 days old, housed in the same facility for one week and food-deprived for about 24 hours are used in this test. […] One hour later, Ptz. is administered intraveneously at 70 mg/kg (convulsant dose 100) and animals are observed 30 seconds for protection against convulsions. If the compound is active orally 8 animals are used per dose level. […] Calculations: The ED50 values and 95% fiducial limits are calculated using a computer program based on the method of D. J. Finney ("Probit Analysis", Cambridge University Press, Cambridge, England, 1971).

A short description of series [3]: 24 hour acute toxicity (LD-50). The settings on record: in vivo, ">" = not tested above indicated value. The procedure:
as §1

Where [4] appears, read: compounds of formula I, read-out: ^3 H-Dz. IC50.
[5] abbreviates: po, 1 h, read-out: ED50 (95% Fiducial Limits).
Where [6] appears, read: compounds of formula I, oral, 1 h before Ptz. 70 mg/kg i.v., mice, ">" = not tested above indicated value, read-out: Ptz. ED50.

Usually pIC50 stands for the IC50 on a negative log10 scale, so that one unit is a factor of ten. As to `NC(=O)C1CCN(c2cc(-c3ccc(Cl)cc3)nc3ccc(Cl)cc23)CC1` [1-[6-chloro-2-(4-chlorophenyl)-4-quinolinyl]-4-piperidinecarboxamide], the negative logarithm of the IC50 (pIC50) in series [1] (setting [4]) is 6.69.

The ED50 is the midpoint of the dose-response relation. Consider `CNC1=Nc2ccc(Cl)cc2C(c2ccccc2)=[N+]([O-])C1` [Chlordiazepoxide, reference compound], for which, in series [2] (setting [5]), the median effective dose (ED50) stood at 3.9 mg/kg.

For `CN1C(=O)CN=C(c2ccccc2)c2cc(Cl)ccc21` [Diazepam, reference compound], the ED50 in series [2] (setting [5]) is 1 mg/kg.

In general, LD50 refers to the dose expected to kill half of the subjects tested. In the case of `CN(C)C(=O)C1CCN(c2cc(-c3ccc(Cl)cc3)nc3ccccc23)CC1` [1-[2-(4-Chlorophenyl)-4-quinolinyl]-N,N-dimethyl-4-piperidinecarboxamide], the ED50 in series [2] (setting [6]) was 24 mg/kg. In addition, the pIC50 in series [1] (setting [4]) is 7.10. Further, the LD50 at 24 h in series [3] was more than 1000 mg/kg.

In the case of `NC(=O)C1CCN(c2cc(-c3ccc(Cl)cc3)nc3ccccc23)CC1` [1-[2-(4-chlorophenyl)-4-quinolinyl]-4-piperidinecarboxamide], the ED50 in series [2] (setting [6]) was 24 mg/kg. The negative-log IC50 (pIC50) in series [1] (setting [4]) is 7.54. The 50% lethal dose (LD50) at 24 h in series [3] was more than 1000 mg/kg.

Turning to `CNC(=O)C1CCN(c2cc(-c3ccc(Cl)cc3)nc3ccc(F)cc23)CC1` [1-[6-Fluoro-2-(4-chlorophenyl)-4-quinolinyl]-N-methyl-4-piperidinecarboxamide], the ED50 in series [2] (setting [6]) was more than 300 mg/kg. Also, the pIC50 in series [1] (setting [4]) is 7.15. The LD50 at 24 h in series [3] is more than 1000 mg/kg.

As for `CCN(CC)CCN1C(=O)CN=C(c2ccccc2F)c2cc(Cl)ccc21` [Flurazepam, reference compound], the pIC50 in series [1] (standard drugs, read-out: IC50) was 7.81.

Turning to `NC(=O)C1CCN(c2cc(-c3ccc(Br)cc3)nc3ccccc23)CC1` [1-[2-(4-Bromophenyl)-4-quinolinyl]-4-piperidinecarboxamide], in series [2] (setting [6]), the ED50 is 41 mg/kg. Also, the pIC50 in series [1] (setting [4]) was 7.46. Also, the LD50 at 24 h in series [3] was more than 1000 mg/kg.

Consider `NC(=O)C1CCN(c2cc(-c3ccccc3)nc3ccc(Cl)cc23)CC1` [1-[6-Chloro-2-phenyl-4-quinolinyl]-4-piperidinecarboxamide], for which the ED50 in series [2] (setting [6]) worked out at 50 mg/kg. The negative logarithm of the IC50 (pIC50) in series [1] (setting [4]) is 7.02. In series [3], the median lethal dose (LD50) at 24 h is more than 1000 mg/kg.

As to `CNC(=O)C1CCN(c2cc(-c3ccc(Cl)cc3)nc3ccccc23)CC1` [1-[2-(4-Chlorophenyl)-4-quinolinyl]-N-methyl-4-piperidinecarboxamide], the 50% effective dose (ED50) in series [2] (setting [6]) was found to be 9 mg/kg. Moreover, the pIC50 in series [1] (setting [4]) was 7.71. This compound yielded an LD50 at 24 h in series [3] of more than 1000 mg/kg.

In the case of `CCC1(c2ccccc2)C(=O)NC(=O)NC1=O` [Sodium Phenobarbital, reference compound], the median effective dose (ED50) in series [2] (setting [5]) was 19 mg/kg.

As to `Cc1ccc(-c2cc(N3CCC(C(N)=O)CC3)c3cc(F)ccc3n2)cc1` [1-[6-Fluoro-2-(4-methylphenyl)-4-quinolinyl]-4-piperidinecarboxamide], the ED50 in series [2] (setting [6]) came to 88 mg/kg. Also, the pIC50 in series [1] (setting [4]) is 8.27. Further, the LD50 at 24 h in series [3] was more than 1000 mg/kg.

Consider `Cc1ccc2nc(-c3ccc(Cl)cc3)cc(N3CCC(C(N)=O)CC3)c2c1` [1-[2-(4-Chlorophenyl)-6-methyl-4-quinolinyl]-4-piperidinecarboxamide], for which the negative-log IC50 (pIC50) in series [1] (setting [4]) is 6.34.

Consider `NC(=O)C1CCN(c2cc(-c3ccccc3)nc3ccc(F)cc23)CC1` [1-[6-Fluoro-2-phenyl-4-quinolinyl]-4-piperidinecarboxamide], for which the ED50 in series [2] (setting [6]) was determined as 120 mg/kg. Moreover, the pIC50 in series [1] (setting [4]) is 8.44. Further, in series [3], the 50% lethal dose (LD50) at 24 h was more than 1000 mg/kg.

For `NC(=O)C1CCN(c2cc(-c3ccc(Cl)cc3)nc3ccc(F)cc23)CC1` [1-[2-(4-Chlorophenyl)-6-fluoro-4-quinolinyl]-4-piperidinecarboxamide], the median effective dose (ED50) in series [2] (setting [6]) worked out at 15 mg/kg. In addition, in series [1] (setting [4]), the pIC50 was 7.44. This compound gave an LD50 at 24 h in series [3] of more than 1000 mg/kg.

Regarding `CNC(=O)C1CCN(c2cc(-c3ccc(F)cc3)nc3ccc(Cl)cc23)CC1` [1-[6-Chloro-2-(4-fluorophenyl)-4-quinolinyl]-N-methyl-4-piperidinecarboxamide], the ED50 in series [2] (setting [6]) is 37 mg/kg. The pIC50 in series [1] (setting [4]) is 7.98. Moreover, the 50% lethal dose (LD50) at 24 h in series [3] was more than 1000 mg/kg.

Take `NC(=O)C1CCN(c2cc(-c3ccc(F)cc3)nc3ccc(F)cc23)CC1` [1-[6-Fluoro-2-(4-fluorophenyl)-4-quinolinyl]-4-piperidinecarboxamide]: the ED50 in series [2] (setting [6]) came to 5 mg/kg. Further, the pIC50 in series [1] (setting [4]) was 9.00. Moreover, in series [3], the LD50 at 24 h was more than 1000 mg/kg.

In the case of `Cc1ccc(-c2cc(N3CCC(C(N)=O)CC3)c3cc(Cl)ccc3n2)cc1` [1-[6-Chloro-2-(4-methylphenyl)-4-quinolinyl]-4-piperidinecarboxamide], the 50% effective dose (ED50) in series [2] (setting [6]) was more than 100 mg/kg. In series [1] (setting [4]), the pIC50 was 7.22. In series [3], this compound returned an LD50 at 24 h of more than 1000 mg/kg.

For `CCCNC(=O)C1CCN(c2cc(-c3ccccc3)nc3ccc(F)cc23)CC1` [1-[6-Fluoro-2-phenyl-4-quinolinyl]-N-propyl-4-piperidinecarboxamide], in series [2] (setting [6]), the 50% effective dose (ED50) was more than 100 mg/kg. The pIC50 in series [1] (setting [4]) is 7.89. The compound further returned an LD50 at 24 h in series [3] of more than 1000 mg/kg.

As for `NC(=O)C1CCN(c2cc(-c3ccc(F)cc3)nc3ccccc23)CC1` [1-[2-(4-Fluorophenyl)-4-quinolinyl]-4-piperidinecarboxamide], the ED50 in series [2] (setting [6]) is more than 100 mg/kg. In addition, the negative logarithm of the IC50 (pIC50) in series [1] (setting [4]) is 8.96. The same compound showed a median lethal dose (LD50) at 24 h in series [3] of more than 1000 mg/kg.

In the case of `CCNC(=O)C1CCN(c2cc(-c3ccccc3)nc3ccc(F)cc23)CC1` [N-Ethyl-1-[6-fluoro-2-phenyl-4-quinolinyl]-4-piperidinecarboxamide], the ED50 in series [2] (setting [6]) was determined as 58 mg/kg. Besides, the pIC50 in series [1] (setting [4]) was 8.55. Moreover, in series [3], the LD50 at 24 h was more than 1000 mg/kg.

`Cc1ccc(-c2cc(N3CCC(C(N)=O)CC3)c3cc(C)ccc3n2)cc1` [1-[6-Methyl-2-(4-methylphenyl)-4-quinolinyl]-4-piperidinecarboxamide]: in series [1] (setting [4]), the pIC50 was 6.54.

On to `CNC(=O)C1CCN(c2cc(-c3ccc(F)cc3)nc3ccc(F)cc23)CC1` [1-6-Fluoro-2-(4-fluorophenyl)-4-quinolinyl)]-N-methyl-4-piperidinecarboxamide], for which the ED50 in series [2] (setting [6]) stood at 13 mg/kg. Moreover, the negative-log IC50 (pIC50) in series [1] (setting [4]) is 8.74. This compound also displayed a median lethal dose (LD50) at 24 h in series [3] of more than 1000 mg/kg.

Regarding `Cc1ccc(-c2cc(N3CCC(C(N)=O)CC3)c3ccccc3n2)cc1` [1-[2-(4-methylphenyl)-4-quinolinyl]-4-piperidinecarboxamide], the ED50 in series [2] (setting [6]) came out at 37 mg/kg. Also, the pIC50 in series [1] (setting [4]) was 8.77. In series [3], this compound gave an LD50 at 24 h of more than 1000 mg/kg.

In the case of `Cc1ccc2nc(-c3ccc(F)cc3)cc(N3CCC(C(N)=O)CC3)c2c1` [1-[2-(4-fluorophenyl)-6-methyl-4-quinolinyl]-4-piperidinecarboxamide], the median effective dose (ED50) in series [2] (setting [6]) was more than 100 mg/kg. In series [1] (setting [4]), the pIC50 was 7.47. The 50% lethal dose (LD50) at 24 h in series [3] was more than 1000 mg/kg.

For `CCN(CC)C(=O)C1CCN(c2cc(-c3ccc(Cl)cc3)nc3ccccc23)CC1` [1-[2-(4-Chlorophenyl)-4-quinolinyl]-N,N-diethyl-4-piperidinecarboxamide], the negative logarithm of the IC50 (pIC50) in series [1] (setting [4]) was 6.30.

`CCNC(=O)C1CCN(c2cc(-c3ccc(Cl)cc3)nc3ccccc23)CC1` [1-[2-(4-chlorophenyl)-4-quinolinyl]-N-ethyl-4-piperidinecarboxamide]: the ED50 in series [2] (setting [6]) was 26 mg/kg. Moreover, in series [1] (setting [4]), the pIC50 was 8.05. The 50% lethal dose (LD50) at 24 h in series [3] is more than 1000 mg/kg.

In the case of `Cc1ccc2nc(-c3ccccc3)cc(N3CCC(C(N)=O)CC3)c2c1` [1-[6-Methyl-2-phenyl-4-quinolinyl]-4-piperidinecarboxamide], the 50% effective dose (ED50) in series [2] (setting [6]) was 90 mg/kg. Besides, the pIC50 in series [1] (setting [4]) is 7.55. Moreover, the LD50 at 24 h in series [3] is more than 1000 mg/kg.

As to `NC(=O)C1CCN(c2cc(-c3ccc(F)cc3)nc3ccc(Cl)cc23)CC1` [1-[6-Chloro-2-(4-fluorophenyl)-4-quinolinyl]-4-piperidinecarboxamide], the 50% effective dose (ED50) in series [2] (setting [6]) was 29 mg/kg. Moreover, in series [1] (setting [4]), the pIC50 is 7.55. Also, the LD50 at 24 h in series [3] was more than 1000 mg/kg.

Turning to `CCNC(=O)C1CCN(c2cc(-c3ccc(F)cc3)nc3ccc(F)cc23)CC1` [1-Ethyl-1-[6-fluoro-2-(4-fluorophenyl)-4-quinolinyl]-4-piperidinecarboxamide], in series [2] (setting [6]), the ED50 came out at 22 mg/kg. Moreover, in series [1] (setting [4]), the pIC50 is 8.52. Further, the median lethal dose (LD50) at 24 h in series [3] was more than 1000 mg/kg.
